Common to all, as to test: MIC (YAG medium)
Common to all, as to assay type: cell-based

The test system of assay [1] is Aspergillus fumigatus AF293. To be noted: Aspergillus fumigatus; YAG medium; MIC banded into grades; AF293; read-out: MIC A. fumigatus (grade). In a few lines:
(§1)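 OD 485 nm read-out after 24 h, 35° C; MIC = lowest concentration inhibiting growth >70% vs drug-free control, in mg/L. Medium YAG (1% glucose, 1% NH4Cl, 0.5% yeast extract); inoculum 1-2×10^4 cfu/mL; compound range 50-0.05 mg/L, repeated at 0.5-0.0005 mg/L […].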

Another assay concerns Aspergillus flavus. To be noted: Aspergillus flavus; YAG medium; MIC banded into grades; read-out: MIC A. flavus (grade). In a few lines:
as §1

The subject of assay [2] is Aspergillus fumigatus AF210. As to conditions: Aspergillus fumigatus; YAG medium; MIC banded into grades; AF210; read-out: MIC A. fumigatus 210 (grade). In a few lines: as §1
Another assay deals with Aspergillus terreus AT4. To be noted: Aspergillus terreus; YAG medium; MIC banded into grades; AT4; read-out: MIC A. terreus (grade). In a few lines:
as §1

The subject of a further assay is Aspergillus niger. To be noted: Aspergillus niger; YAG medium; MIC banded into grades; read-out: MIC A. niger (grade). The essentials: as §1
For a further assay, the system named is Aspergillus terreus AT49. As to conditions: Aspergillus terreus; YAG medium; MIC banded into grades; AT49; read-out: MIC A. terreus 49 (grade). The essentials:
as §1

Values after ≈ are worked out from the molar mass of the structure shown.

For orientation: MIC means the least concentration at which growth counts as inhibited. As for `Cc1cc(C)nc(N(C)CCNc2ccc(NC(=O)C(=O)c3c(-c4ccccc4)cc4ccccn34)cc2)c1` [Example 78, N-(4-{2-[(4,6-Dimethyl-pyridin-2-yl)-methyl-amino]-ethylamino}-phenyl)-2-oxo-2-(2-phenyl-indolizin-3-yl)-acetamide], the MIC (in assay [1]; with Aspergillus flavus; in assay [2]; with Aspergillus terreus AT4; in the assay with Aspergillus niger; in the assay with Aspergillus terreus AT49) was less than 1 µg/mL throughout.
Regarding `Cc1cc(C)nc(N2CCC(O)(c3ccc(NC(=O)C(=O)c4c(-c5ccccc5)cc5ccccn45)cc3)CC2)c1` [Example 79, N-[4-(4-hydroxy-4′,6′-dimethyl-3,4,5,6-tetrahydro-2H-[1,2′]-bipyridinyl-4-yl)-phenyl]-2-oxo-2-(2-phenyl-indolizin-3-yl)-acetamide], the MIC (in assay [1]; in the assay with Aspergillus flavus; in assay [2]; with Aspergillus terreus AT4; in the assay with Aspergillus niger; in the assay on Aspergillus terreus AT49) was greater than 10 µg/mL in each case.
With `Cc1cc(C)nc(N2CCN(c3ccc(NC(=O)C(=O)c4c(-c5ccccc5)cc5ccccn45)c(C)c3)CC2)c1` [Example 80, N-{4-[4-(4,6-Dimethyl-pyridin-2-yl)-piperazin-1-yl]-2-methyl-phenyl}-2-oxo-2-(2-phenyl-indolizin-3-yl)-acetamide], the MIC (in assay [1]; with Aspergillus flavus; in assay [2]; with Aspergillus terreus AT4; in the assay with Aspergillus niger; in the assay with Aspergillus terreus AT49) was less than 1 µg/mL each time.
`COCc1cc(NC(=O)C(=O)c2c(-c3ccccc3)cc3ccccn23)ccc1N1CCN(c2cc(C)cc(C)n2)CC1` [Example 81, N-{4-[4-(4,6-Dimethyl-pyridin-2-yl)-piperazin-1-yl]-3-methoxymethyl-phenyl}-2-oxo-2-(2-phenyl-indolizin-3-yl)-acetamide]: the MIC (in assay [1]; in the assay on Aspergillus flavus; in assay [2]; in the assay with Aspergillus terreus AT4; in the assay with Aspergillus niger; in the assay with Aspergillus terreus AT49) was less than 1 µg/mL in each case.
In the case of `Cc1cc(C)nc(N2CCN(c3ccc(NC(=O)C(=O)c4c(-c5ccccc5)cc5ccccn45)cc3C)CC2)c1` [Example 82, N-{4-[4-(4,6-Dimethyl-pyridin-2-yl)-piperazin-1-yl]-3-methyl-phenyl}-2-oxo-2-(2-phenyl-indolizin-3-yl)-acetamide], the minimum inhibitory concentration (MIC) (in assay [1]; in the assay on Aspergillus flavus; in assay [2]; in the assay on Aspergillus terreus AT4; with Aspergillus niger; in the assay on Aspergillus terreus AT49) was less than 1 µg/mL each time.
`COCc1cc(N2CCN(c3cc(C)cc(C)n3)CC2)ccc1NC(=O)C(=O)c1c(-c2ccccc2)cc2ccccn12` [Example 83, N-{4-[4-(4,6-Dimethyl-pyridin-2-yl)-piperazin-1-yl]-2-methoxymethyl-phenyl}-2-oxo-2-(2-phenyl-indolizin-3-yl)-acetamide]: the MIC (in assay [1]; with Aspergillus flavus; in assay [2]; in the assay with Aspergillus terreus AT4; in the assay with Aspergillus niger; in the assay with Aspergillus terreus AT49) was less than 1 µg/mL throughout.
For `Cc1cc(C)nc(N2CCN(c3ccc(NC(=O)C(=O)c4c(-c5ccccc5)cc5ccccn45)cc3C(=O)O)CC2)c1` [Example 84, 2-[4-(4,6-Dimethyl-pyridin-2-yl)-piperazin-1-yl]-5-[2-oxo-2-(2-phenyl-indolizin-3-yl)-acetylamino]-benzoic acid], the minimal inhibitory concentration (MIC) in assay [1] was less than 1 µg/mL; in the assay on Aspergillus flavus, less than 1 µg/mL; in assay [2], 1 to 10 µg/mL (≈ 1.74 to 17.4 µM); in the assay on Aspergillus terreus AT4, 1 to 10 µg/mL (≈ 1.74 to 17.4 µM); in the assay on Aspergillus niger, 1 to 10 µg/mL (≈ 1.74 to 17.4 µM); in the assay with Aspergillus terreus AT49 it was 1 to 10 µg/mL (≈ 1.74 to 17.4 µM).
For `O=C(Nc1ccc(-c2cocn2)cc1)C(=O)c1c(-c2ccc(-c3ccccc3)cc2)cc2ccccn12` [Example 85, 2-(2-Biphenyl-4-yl-indolizin-3-yl)-N-(4-oxazol-4-yl-phenyl)-2-oxo-acetamide], the MIC in assay [1] is greater than 10 µg/mL; with Aspergillus flavus, less than 1 µg/mL; in assay [2], greater than 10 µg/mL; in the assay on Aspergillus terreus AT4, less than 1 µg/mL; with Aspergillus niger it was greater than 10 µg/mL; in the assay on Aspergillus terreus AT49, less than 1 µg/mL.
For the compound `O=C(Nc1ccc(N2CCN(c3cccc(N(CCO)CCO)n3)CC2)cc1)C(=O)c1c(-c2ccccc2)cc2ccccn12` [Example 86, N-[4-(4-{6-[Bis-(2-hydroxy-ethyl)-amino]-pyridin-2-yl}-piperazin-1-yl)-phenyl]-2-oxo-2-[2-phenyl-indolizin-3-yl)-acetamide], the MIC is less than 1 µg/mL in assay [1]; less than 1 µg/mL in the assay with Aspergillus flavus; 1 to 10 µg/mL (≈ 1.65 to 16.5 µM) in assay [2]; 1 to 10 µg/mL (≈ 1.65 to 16.5 µM) in the assay on Aspergillus terreus AT4; 1 to 10 µg/mL (≈ 1.65 to 16.5 µM) in the assay on Aspergillus niger; 1 to 10 µg/mL (≈ 1.65 to 16.5 µM) in the assay on Aspergillus terreus AT49.
In the case of `O=C(Nc1ccc(N2CCN(c3cccc(NCCO)n3)CC2)cc1)C(=O)c1c(-c2ccccc2)cc2ccccn12` [Example 87, N-(4-{4-[6-(2-hydroxyethylamino)-pyridin-2-yl]-piperazin-1-yl}-phenyl)-2-oxo-2-(2-phenyl-indolizin-3-yl)-acetamide], the MIC in assay [1] was less than 1 µg/mL; in the assay with Aspergillus flavus, less than 1 µg/mL; in assay [2], 1 to 10 µg/mL (≈ 1.78 to 17.8 µM); in the assay with Aspergillus terreus AT4 it was 1 to 10 µg/mL (≈ 1.78 to 17.8 µM); in the assay on Aspergillus niger it was greater than 10 µg/mL; with Aspergillus terreus AT49, less than 1 µg/mL.
In the case of `O=C(Nc1ccc(N2CCN(c3cccc(CCO)n3)CC2)cc1)C(=O)c1c(-c2ccccc2)cc2ccccn12` [Example 88, N-(4-{4-[6-(2-hydroxy-ethyl)-pyridin-2-yl]-piperazin-1-yl}-phenyl)-2-oxo-2-(2-phenyl-indolizin-3-yl)-acetamide], the MIC (in assay [1]; in the assay with Aspergillus flavus; in assay [2]; with Aspergillus terreus AT4; with Aspergillus niger; in the assay on Aspergillus terreus AT49) was less than 1 µg/mL each time.
On to `O=C(Nc1ccc(N2CCN(c3cc(OCCO)ccn3)CC2)cc1)C(=O)c1c(-c2ccccc2)cc2ccccn12` [Example 89, N-(4-{4-[4-(2-Hydroxy-ethoxy)-pyridin-2-yl]-piperazin-1-yl}-phenyl)-2-oxo-2-(2-phenyl-indolizin-3-yl)-acetamide], for which the MIC is 1 to 10 µg/mL (≈ 1.78 to 17.8 µM) in assay [1]; less than 1 µg/mL with Aspergillus flavus; 1 to 10 µg/mL (≈ 1.78 to 17.8 µM) in assay [2]; 1 to 10 µg/mL (≈ 1.78 to 17.8 µM) in the assay on Aspergillus terreus AT4; 1 to 10 µg/mL (≈ 1.78 to 17.8 µM) with Aspergillus niger; less than 1 µg/mL in the assay with Aspergillus terreus AT49.
`O=C(Nc1ccc(NCCOc2ccccn2)cc1)C(=O)c1c(-c2ccccc2)cc2ccccn12` [Example 90, 2-Oxo-2-(2-phenyl-indolizin-3-yl)-N-{4-[2-(pyridin-2-yloxy)-ethylamino]-phenyl}-acetamide]: the MIC (in assay [1]; in the assay on Aspergillus flavus; in assay [2]; with Aspergillus terreus AT4; with Aspergillus niger; with Aspergillus terreus AT49) was less than 1 µg/mL in each case.
As to `Cc1cc(C)nc(CNc2ccc(NC(=O)C(=O)c3c(-c4ccccc4)cc4ccccn34)cc2)c1` [Example 91, N-{4-[(4,6-Dimethyl-pyridin-2-ylmethyl)-amino]-phenyl}-2-oxo-2-(2-phenyl-indolizin-3-yl)-acetamide], the MIC (in assay [1]; with Aspergillus flavus; in assay [2]; in the assay on Aspergillus terreus AT4; in the assay on Aspergillus niger; in the assay with Aspergillus terreus AT49) was less than 1 µg/mL throughout.

The values are drawn from US20110183969A1, “ANTIFUNGAL COMBINATION THERAPY” (priority 2008, published 2011).
